Laboratory results as given in patent US20090076006A1, “HSP90 INHIBITORS CONTAINING A ZINC BINDING MOIETY” (priority 2007, published 2009).

How the values were obtained:
[1] = tested on: HDAC (HeLa nuclear extract); test: HDAC fluorimetric assay (inhibition of HDAC enzymatic activity); assay type: biochemical; conditions: HDAC fluorimetric assay kit
Protocol: (c) An In Vitro Assay which Determines the Ability of a Test Compound to Inhibit HDAC Enzymatic Activity.
HDAC inhibitors were screened using an HDAC fluorimetric assay kit (AK-500, Biomol, Plymouth Meeting, Pa.). Test compounds were dissolved in dimethylsulphoxide (DMSO) to give a 20 mM working stock concentration. Fluorescence was measured on a WALLAC Victor 2 plate reader and reported as relative fluorescence units (RFU). Data were plotted using GraphPad Prism (v4.0a) and IC50's calculated using a sigmoidal dose response curve fitting algorithm. Each assay was setup as follows: Defrosted all kit components and kept on ice until use. Diluted HeLa nuclear extract 1:29 in Assay Buffer (50 mM Tris/Cl, pH 8.0, 137 mM NaCl, 2.7 mM KCl, 1 mM MgCl2). Prepared dilutions of Trichostatin A (TSA, positive control) and tested compounds in assay buffer (5× of final concentration). Diluted Fluor de Lys™ Substrate in assay buffer to 100 uM (50 fold=2× final). Diluted Fluor de Lys™ developer concentrate 20-fold (e.g. 50 μl plus 950 μl Assay Buffer) in cold assay buffer. Second, diluted the 0.2 mM Trichostatin A 100-fold in the 1× Developer (e.g. 10 μl in 1 ml; final Trichostatin A concentration in the 1× Developer=2 μM; final concentration after addition to HDAC/Substrate reaction=1 μM). Added Assay buffer, diluted trichostatin A or test inhibitor to appropriate wells of the microtiter plate. Added diluted HeLa extract or other HDAC sample to all wells except for negative controls. Allowed diluted Fluor de Lys™ Substrate and the samples in the microtiter plate to equilibrate to assay temperature (e.g. 25 or 37° C. Initiated HDAC reactions by adding diluted substrate (25 μl) to each well and mixing thoroughly. Allowed HDAC reactions to proceed for 1 hour and then stopped them by addition of Fluor de Lys™ Developer (50 μl). Incubated plate at room temperature (25° C.) for 10-15 min. Read samples in a microtiter-plate reading fluorimeter capable of excitation at a wavelength in the range 350-380 nm and detection of emitted light in the range 440-460 nm.

HSP90 = target: T1, HSP90 (Homo sapiens, UniProt P07900); test: HSP90 assay (chaperone luciferase refolding / competition binding fluorescence polarization); conditions: Table B does not say which of the two described
T1 construct: purchased Assay Design SPP-776F
Protocol: (a) An In Vitro Assay which Determines the Ability of a Test Compound to Inhibit Hsp90 Chaperone Activity.
The Hsp90 chaperone assay was performed to measure the ability of HSP90 protein to refold the heat-denatured luciferase protein. HSP90 was first incubated with different concentrations of test compounds in denaturation buffer (25 mM Tris, pH7.5, 8 mM MgSO4, 0.01% bovine gamma globulin and 10% glycerol) at room temperature for 30 min. Luciferase protein was added to denaturation mix and incubated at 50° C. for 8 min. The final concentration of HSP90 and luciferase in denaturation mixture were 0.375 μM and 0.125 μM respectively. A 5 μl sample of the denatured mix was diluted into 25 μl of renaturation buffer (25 mM Tris, pH7.5, 8 mM MgSO4, 0.01% bovine gamma globulin and 10% glycerol, 0.5 mM ATP, 2 mM DTT, 5 mM KCl, 0.3 μM HSP70 and 0.15 μM HSP40). The renaturation reaction was incubated at room temperature for 150 min, followed by dilution of 10 μl of the renatured sample into 90 μl of luciferin reagent (Luclite, PerkinElmer Life Science). The mixture was incubated at dark for 5 min before reading the luminescence signal on a TopCount plate reader (PerkinElmer Life Science).
(b) HSP90 Competition Binding (Fluorescence Polarization) Assay.
A fluorescein isothiocyanate (FITC) labeled GM was purchase from InvivoGen (ant-fgl-1). The interaction between HSP90 and labeled GM forms the basis for the fluorescence polarization assay. A free and fast-tumbling FITC labeled GM emits random light with respect to the plane of polarization plane of excited light, resulting in a lower polarization degree (mP) value. When GM is bound to HSP90, the complex tumble slower and the emitted light is polarized, resulting in a higher mP value. This competition binding assay was performed in 96-well plate and with each assay contained 10 and 50 nM of labeled GM and purified HSP90 protein (Assay Design, SPP-776F) respectively. The assay buffer contained 20 mM HEPES (pH 7.3), 50 mM KCl, 1 mM DTT, 50 mM MgCl2, 20 mM Na2MoO4, 0.01% NP40 with 0.1 mg/ml bovine gamma-globulin. Compounds are diluted in DMSO and added to the final assay before labeled GM with concentration range from 20 uM to 2 nM. mP value was determined by BioTek Synergy II with background subtraction after 24 hours of incubation at 4° C.

Row | IC50 [1] | IC50 (HSP90) | melting point | SMILES
1 | 1000 to 10000 nM | ≤ 100 nM | – | CCNC(=O)c1noc(-c2cc(Cl)c(O)cc2O)c1-c1ccc(OCCCCC(=O)NO)cc1 [Compound 2, 5-(5-Chloro-2,4-dihydroxyphenyl)-N-ethyl-4-(4-(5-(hydroxyamino)-5-oxopentyloxy)phenyl)isoxazole-3-carboxamide]
2 | 100 to 1000 nM | ≤ 100 nM | – | CCNC(=O)c1noc(-c2cc(Cl)c(O)cc2O)c1-c1ccc(OCCCCCC(=O)NO)cc1 [Compound 3, 5-(5-Chloro-2,4-dihydroxyphenyl)-N-ethyl-4-(4-(6-(hydroxyamino)-6-oxohexyloxy)phenyl)isoxazole-3-carboxamide]
3 | 100 to 1000 nM | ≤ 100 nM | – | CCNC(=O)c1noc(-c2cc(Cl)c(O)cc2O)c1-c1ccc(OCCCCCCC(=O)NO)cc1 [Compound 4, 5-(5-chloro-2,4-dihydroxyphenyl)-N-ethyl-4-(4-(7-(hydroxylamino)-7-oxoheptyloxy)phenyl)isoxazole-3-carboxamide]
4 | 1000 to 10000 nM | ≤ 100 nM | – | COc1ccc(-c2c(C(=O)NCCC(=O)NO)noc2-c2cc(Cl)c(O)cc2O)cc1 [Compound 5, 5-(5-chloro-2,4-dihydroxyphenyl)-N-(3-(hydroxyl-amino)-3-oxopropyl)-4-(4-methoxyphenyl)isoxazole-3-carboxamide]
5 | 1000 to 10000 nM | ≤ 100 nM | – | COc1ccc(-c2c(C(=O)NCCCC(=O)NO)noc2-c2cc(Cl)c(O)cc2O)cc1 [Compound 6, 5-(5-chloro-2,4-dihydroxyphenyl)-N-(4-(hydroxyamino)-4-oxobutyl)-4-(4-methoxyphenyl)isoxazole-3-carboxamide]
6 | 100 to 1000 nM | ≤ 100 nM | – | COc1ccc(-c2c(C(=O)NCCCCCC(=O)NO)noc2-c2cc(Cl)c(O)cc2O)cc1 [Compound 8, 5-(5-chloro-2,4-dihydroxyphenyl)-N-(6-(hydroxylamino)-6-oxohexyl)-4-(4-methoxyphenyl)isoxazole-3-carboxamide]
7 | ≤ 100 nM | ≤ 100 nM | – | COc1ccc(-c2c(C(=O)NCCCCCCC(=O)NO)noc2-c2cc(Cl)c(O)cc2O)cc1 [Compound 9, 5-(5-chloro-2,4-dihydroxyphenyl)-N-(7-(hydroxylamino)-7-oxoheptyl)-4-(4-methoxyphenyl)isoxazole-3-carboxamide]
8 | ≤ 100 nM | ≤ 100 nM | – | COc1ccc(-c2c(C(=O)NCCCCCCCC(=O)NO)noc2-c2cc(Cl)c(O)cc2O)cc1 [Compound 10, 5-(5-chloro-2,4-dihydroxyphenyl)-N-(8-(hydroxylamino)-8-oxooctyl)-4-(4-methoxyphenyl)isoxazole-3-carboxamide]
9 | ≤ 100 nM | 100 to 1000 nM | 186 to 190 °C | COc1ccc(-c2c(C(=O)N3CCN(c4ncc(C(=O)NO)cn4)CC3)noc2-c2cc(Cl)c(O)cc2O)cc1 [Compound 11, 2-(4-(5-(5-chloro-2,4-dihydroxyphenyl)-4-(4-methoxyphenyl)isoxazole-3-carbonyl)piperazin-1-yl)-N-hydroxypyrimidine-5-carboxamide]
10 | ≤ 100 nM | 100 to 1000 nM | 148 to 151 °C | COc1ccc(-c2c(C(=O)NCC3CCN(c4ncc(C(=O)NO)cn4)CC3)noc2-c2cc(Cl)c(O)cc2O)cc1 [Compound 13, 5-(5-Chloro-2,4-dihydroxyphenyl)-N-((1-(5-(hydroxycarbamoyl)pyrimidin-2-yl)piperidin-4-yl)methyl)-4-(4-methoxyphenyl)isoxazole-3-carboxamide]
11 | 1000 to 10000 nM | ≤ 100 nM | 146 to 148 °C | CCNC(=O)c1noc(-c2cc(C(C)C)c(O)cc2O)c1-c1ccc(CNCCC(=O)NO)cc1 [Compound 15, 5-(2,4-dihydroxy-5-isopropylphenyl)-N-ethyl-4-(4-((3-(hydroxyamino)-3-oxopro-pylamino)methyl)phenyl)isoxazole-3-carboxamide]
12 | ≥ 10000 nM | ≤ 100 nM | 120 to 122 °C | CCNC(=O)c1noc(-c2cc(C(C)C)c(O)cc2O)c1-c1ccc(CN(C)CCC(=O)NO)cc1 [Compound 16, 5-(2,4-dihydroxy-5-isopropylphenyl)-N-ethyl-4-(4-(((3-(hydroxyamino)-3-oxopropyl)(methyl)amino)methyl)phenyl)isoxazole-3-carboxamide]
13 | ≥ 10000 nM | ≤ 100 nM | 132 to 134 °C | CCNC(=O)c1noc(-c2cc(C(C)C)c(O)cc2O)c1-c1ccc(CN(C)CCCC(=O)NO)cc1 [Compound 18, 5-(2,4-dihydroxy-5-isopropylphenyl)-N-ethyl-4-(4-(((4-(hydroxyamino)-4-oxobutyl)(methyl)amino)methyl)phenyl)isoxazole-3-carboxamide]
14 | 1000 to 10000 nM | ≤ 100 nM | 134 to 135 °C | CCNC(=O)c1noc(-c2cc(C(C)C)c(O)cc2O)c1-c1ccc(CNCCCCCC(=O)NO)cc1 [Compound 21, 5-(2,4-Dihydroxy-5-isopropylphenyl)-N-ethyl-4-(4-((6-(hydroxyamino)-6-oxohexylamino)methyl)phenyl)isoxazole-3-carboxamide]
15 | 1000 to 10000 nM | ≤ 100 nM | 113 to 115 °C | CCNC(=O)c1noc(-c2cc(C(C)C)c(O)cc2O)c1-c1ccc(CN(C)CCCCCC(=O)NO)cc1 [Compound 22, 5-(2,4-Dihydroxy-5-isopropylphenyl)-N-ethyl-4-(4-(((6-(hydroxyamino)-6-oxohexyl)(methyl)amino)methyl)phenyl)isoxazole-3-carboxamide]
16 | 100 to 1000 nM | ≤ 100 nM | 126 to 128 °C | CCNC(=O)c1noc(-c2cc(C(C)C)c(O)cc2O)c1-c1ccc(CNCCCCCCC(=O)NO)cc1 [Compound 23, 5-(2,4-dihydroxy-5-isopropylphenyl)-N-ethyl-4-(4-((7-(hydroxyamino)-7-oxoheptylamino)methyl)phenyl)isoxazole-3-carboxamide]
17 | 100 to 1000 nM | ≤ 100 nM | 118 to 119 °C | CCNC(=O)c1noc(-c2cc(C(C)C)c(O)cc2O)c1-c1ccc(CN(C)CCCCCCC(=O)NO)cc1 [Compound 24, 5-(2,4-Dihydroxy-5-isopropylphenyl)-N-ethyl-4-(4-(((7-(hydroxyamino)-7-oxoheptyl)(methyl)amino)methyl)phenyl)isoxazole-3-carboxamide]
18 | – | ≤ 100 nM | 129 to 130 °C | CC(C)c1cc(-c2onc(C(=O)NCCCC(=O)NO)c2-c2ccc(CN3CCOCC3)cc2)c(O)cc1O [Compound 25, 5-(2,4-Dihydroxy-5-isopropylphenyl)-N-(4-(hydroxyamino)-4-oxobutyl)-4-(4-(morpholinomethyl)phenyl)isoxazole-3-carboxamide]

Row | SMILES | IC50 [1] | IC50 (HSP90) | melting point
19 | CCNC(=O)c1noc(-c2cc(Cl)c(O)cc2O)c1-c1ccc(OCCCC(=O)NO)cc1 [Compound 1, 5-(5-chloro-2,4-dihydroxyphenyl)-N-ethyl-4-(4-(4-(hydroxyamino)-4-oxobutoxy)phenyl)isoxazole-3-carboxamide] | 100 to 1000 nM | ≤ 100 nM | –
